Measurements as given in patent publication US8999982B2, “Pharmaceutically active compounds as Axl inhibitors” (Lead Discovery Center GmbH, priority 2010, dated 2015).
Structures can show the parent of a compound that is named as a salt.

Experiments:
Axl [1] = molecular target: T1, Axl (Homo sapiens (Human), UniProt P30530); assay: Cellular Axl phosphorylation assay; format: cell-based; conditions: HEK293 cells transfected with Axl cDNA, 1 hour incubation
Procedure: 3. Cellular Axl Phosphorylation Assay:
HEK293 embryonal kidney fibroblasts were transfected in 96 wells with a plasmid containing Axl cDNA. As transfection reagent Superfect (Qiagen) was used. Transfection of the sole vector backbone served as negative control of Axl expression. After overnight incubation the cellular supernatant was replaced with fresh medium. On the following day the Axl-expressing cells were incubated for 1 hour with a compound according to formula (I) at the suitable concentrations. […] The mesoscale technology was used for quantification.

Axl [2] = molecular target: T1, Axl; assay: Axl binding assay
Procedure: Binding of the tracer to the kinase is detected using an EU-labeled anti-tag antibody. […] Binding of an inhibitor to the kinase competes for binding with the tracer, resulting in a loss of FRET-signal. At first a compound according to formula (I) was diluted in 20 mM Hepes pH 8.0, 1 mM DTT, 10 mM MgCl2 and 0.01% Brij35.

T1 sequence (P30530 26-894): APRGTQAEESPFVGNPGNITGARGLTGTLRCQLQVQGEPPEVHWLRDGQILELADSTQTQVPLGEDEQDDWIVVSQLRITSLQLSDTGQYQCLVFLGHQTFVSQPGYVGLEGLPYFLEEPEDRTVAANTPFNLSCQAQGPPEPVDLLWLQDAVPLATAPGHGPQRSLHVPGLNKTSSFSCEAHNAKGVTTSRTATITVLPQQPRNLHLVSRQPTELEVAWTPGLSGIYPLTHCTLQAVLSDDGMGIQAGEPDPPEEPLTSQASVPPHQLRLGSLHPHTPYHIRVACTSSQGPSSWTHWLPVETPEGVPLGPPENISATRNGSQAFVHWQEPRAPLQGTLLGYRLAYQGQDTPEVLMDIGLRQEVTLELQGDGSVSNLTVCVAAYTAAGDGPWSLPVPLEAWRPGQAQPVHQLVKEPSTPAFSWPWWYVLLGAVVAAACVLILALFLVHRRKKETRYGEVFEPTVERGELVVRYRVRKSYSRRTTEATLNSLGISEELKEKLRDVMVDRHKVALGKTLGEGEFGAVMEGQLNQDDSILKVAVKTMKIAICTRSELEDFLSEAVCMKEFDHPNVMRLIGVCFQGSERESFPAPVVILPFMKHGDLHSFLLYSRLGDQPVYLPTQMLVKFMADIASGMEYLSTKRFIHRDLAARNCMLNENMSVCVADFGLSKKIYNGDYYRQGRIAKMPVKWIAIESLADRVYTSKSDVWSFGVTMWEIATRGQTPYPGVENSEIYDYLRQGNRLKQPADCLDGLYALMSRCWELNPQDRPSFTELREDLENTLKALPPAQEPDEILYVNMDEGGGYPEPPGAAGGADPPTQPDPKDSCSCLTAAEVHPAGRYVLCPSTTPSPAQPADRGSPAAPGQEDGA

| SMILES | IC50 (Axl [1]) [nM] | IC50 (Axl [2]) [nM] |
| --- | --- | --- |
| CCOc1cn(-c2ccc(F)cc2)nc1C(=O)Nc1ccc(Oc2ccnc3cc(OCCCN)c(OC)cc23)c(F)c1 [Example 54, N-[4-[[7-(3-aminopropoxy)-6-methoxy-4-quinolyl]oxy]-3-fluoro-phenyl]-4-ethoxy-1-(4-fluorophenyl)pyrazole-3-carboxamide] | < 500 | < 500 |
| CCOc1cn(-c2ccc(F)cc2C)nc1C(=O)Nc1ccc(Oc2ccnc3cc(OCCCN)c(OC)cc23)c(F)c1 [Example 55, N-[4-[[7-(3-aminopropoxy)-6-methoxy-4-quinolyl]oxy]-3-fluoro-phenyl]-4-ethoxy-1-(4-fluoro-2-methyl-phenyl)pyrazole-3-carboxamide] | < 500 | < 500 |
| CCOc1oc(-c2ccc(F)cc2)nc1C(=O)Nc1ccc(Oc2ccnc3cc(OCCCN)c(OC)cc23)c(F)c1 [Example 56, N-[4-[[7-(3-aminopropoxy)-6-methoxy-4-quinolyl]oxy]-3-fluoro-phenyl]-5-ethoxy-2-(4-fluorophenyl)oxazole-4-carboxamide] | < 500 | < 500 |
| CCOc1cn(-c2ccc(F)cc2C)nc1C(=O)Nc1ccc(Oc2ccnc3cc(OCCCN4CCN(C)CC4)c(OC)cc23)c(F)c1 [Example 57, 4-ethoxy-N-[3-fluoro-4-[[6-methoxy-7-[3-(4-methylpiperazin-1-yl)propoxy]-4-quinolyl]oxy]phenyl]-1-(4-fluoro-2-methyl-phenyl)pyrazole-3-carboxamide] | < 500 | < 500 |
| CCOc1cn(-c2ccc(F)cc2)nc1C(=O)Nc1ccc(Oc2ccnc3cc(OCCCN4CCN(C)CC4)c(OC)cc23)c(F)c1 [Example 58, 4-ethoxy-N-[3-fluoro-4-[[6-methoxy-7-[3-(4-methylpiperazin-1-yl)propoxy]-4-quinolyl]oxy]phenyl]-1-(4-fluorophenyl)pyrazole-3-carboxamide] | < 500 | < 500 |
| COc1cc2c(Oc3ccc(NC(=O)c4nn(-c5ccc(F)cc5)cc4OC)cc3F)ccnc2cc1OCCCN1CCN(C)CC1 [Example 59, N-[3-fluoro-4-[[6-methoxy-7-[3-(4-methylpiperazin-1-yl)propoxy]-4-quinolyl]oxy]phenyl]-1-(4-fluorophenyl)-4-methoxy-pyrazole-3-carboxamide] | < 500 | < 500 |
| CCOc1cn(-c2ccc(F)cc2Cl)nc1C(=O)Nc1ccc(Oc2ccnc3cc(OCCCN4CCN(C)CC4)c(OC)cc23)c(F)c1 [Example 60, 1-(2-chloro-4-fluoro-phenyl)-4-ethoxy-N-[3-fluoro-4-[[6-methoxy-7-[3-(4-methylpiperazin-1-yl)propoxy]-4-quinolyl]oxy]phenyl]pyrazole-3-carboxamide] | < 500 | < 500 |
| COc1cc2c(Oc3ccc(NC(=O)c4nn(-c5ccc(F)cc5)cc4OCC4CC4)cc3F)ccnc2cc1OCCCN1CCN(C)CC1 [Example 61, 4-(cyclopropylmethoxy)-N-[3-fluoro-4-[[6-methoxy-7-[3-(4-methylpiperazin-1-yl)propoxy]-4-quinolyl]oxy]phenyl]-1-(4-fluorophenyl)pyrazole-3-carboxamide] | < 500 | < 500 |
| COc1cc2c(Oc3ccc(NC(=O)c4nn(-c5ccc(F)cc5)cc4OC(C)C)cc3F)ccnc2cc1OCCCN1CCN(C)CC1 [Example 62, N-[3-fluoro-4-[[6-methoxy-7-[3-(4-methylpiperazin-1-yl)propoxy]-4-quinolyl]oxy]phenyl]-1-(4-fluorophenyl)-4-isopropoxy-pyrazole-3-carboxamide] | < 500 | < 500 |
| CCOc1oc(-c2ccc(F)cc2)nc1C(=O)Nc1ccc(Oc2ccnc3cc(OCCCN4CCN(C)CC4)c(OC)cc23)c(F)c1 [Example 63, 5-ethoxy-N-[3-fluoro-4-[[6-methoxy-7-[3-(4-methylpiperazin-1-yl)propoxy]-4-quinolyl]oxy]phenyl]-2-(4-fluorophenyl)oxazole-4-carboxamide] | < 500 | < 500 |
| COc1cc2c(Oc3ccc(NC(=O)c4nn(-c5ccc(F)cc5)cc4OCC4CC4)cc3F)ccnc2cc1OCCCN1CCNCC1 [Example 64, 4-(cyclopropylmethoxy)-N-[3-fluoro-4-[[6-methoxy-7-(3-piperazin-1-ylpropoxy)-4-quinolyl]oxy]phenyl]-1-(4-fluorophenyl)pyrazole-3-carboxamide trifluoroacetic acid salt] | < 500 | < 500 |
| CCOc1cn(-c2ccc(F)cc2)nc1C(=O)Nc1ccc(Oc2ccnc3cc(OCCCN4CCNCC4)c(OC)cc23)c(F)c1 [Example 65, 4-ethoxy-N-[3-fluoro-4-[[6-methoxy-7-(3-piperazin-1-ylpropoxy)-4-quinolyl]oxy]phenyl]-1-(4-fluorophenyl)pyrazole-3-carboxamide] | < 500 | < 500 |
| COc1cc2c(Oc3ccc(NC(=O)c4nn(-c5ccc(F)cc5)cc4OC)cc3F)ccnc2cc1OCCCN1CCNCC1 [Example 66, N-[3-fluoro-4-[[6-methoxy-7-(3-piperazin-1-ylpropoxy)-4-quinolyl]oxy]phenyl]-1-(4-fluorophenyl)-4-methoxy-pyrazole-3-carboxamide] | < 500 | < 500 |
| COc1cc2c(Oc3ccc(NC(=O)c4nn(-c5ccc(F)cc5)cc4OC(C)C)cc3F)ccnc2cc1OCCCN1CCNCC1 [Example 67, N-[3-fluoro-4-[[6-methoxy-7-(3-piperazin-1-ylpropoxy)-4-quinolyl]oxy]phenyl]-1-(4-fluorophenyl)-4-isopropoxy-pyrazole-3-carboxamide] | < 500 | < 500 |
| CCOc1cn(-c2ccc(F)cc2Cl)nc1C(=O)Nc1ccc(Oc2ccnc3cc(OCCCN4CCNCC4)c(OC)cc23)c(F)c1 [Example 68, 1-(2-chloro-4-fluoro-phenyl)-4-ethoxy-N-[3-fluoro-4-[[6-methoxy-7-(3-piperazin-1-ylpropoxy)-4-quinolyl]oxy]phenyl]pyrazole-3-carboxamide] | < 500 | < 500 |
| CCOc1cn(-c2ccc(F)cc2C)nc1C(=O)Nc1ccc(Oc2ccnc3cc(OCCCN4CCNCC4)c(OC)cc23)c(F)c1 [Example 69, 4-ethoxy-N-[3-fluoro-4-[[6-methoxy-7-(3-piperazin-1-ylpropoxy)-4-quinolyl]oxy)phenyl]-1-(4-fluoro-2-methyl-phenyl)pyrazole-3-carboxamide] | < 500 | < 500 |

Continued, values first:

| IC50 (Axl [1]) [nM] | IC50 (Axl [2]) [nM] | SMILES |
| --- | --- | --- |
| < 500 | < 500 | COCCOc1cn(-c2ccc(F)cc2)nc1C(=O)Nc1ccc(Oc2ccnc3cc(OCCCN4CCNCC4)c(OC)cc23)c(F)c1 [Example 70, N-[3-fluoro-4-[[6-methoxy-7-(3-piperazin-1-ylpropoxy)-4-quinolyl]oxy]phenyl]-1-(4-fluorophenyl)-4-(2-methoxyethoxy)pyrazole-3-carboxamide] |
| 500 to 5000 | < 500 | COc1cc2c(Oc3ccc(NC(=O)c4nn(-c5ccc(F)cc5)cc4OCC4CCN(C)C4)cc3F)ccnc2cc1OCCCN1CCNCC1 (centres unmarked) [Example 71, N-[3-fluoro-4-[[6-methoxy-7-(3-piperazin-1-ylpropoxy)-4-quinolyl]oxy]phenyl]-1-(4-fluorophenyl)-4-[(1-methylpyrrolidin-3-yl)methoxy]pyrazole-3-carboxamide] |
| < 500 | < 500 | COc1cc2c(Oc3ccc(NC(=O)c4csc(-c5ccccc5)n4)cc3F)ccnc2cc1OCCCN1CCNCC1 [Example 72, N-[3-fluoro-4-[[6-methoxy-7-(3-piperazin-1-ylpropoxy)-4-quinolyl]oxy]phenyl]-2-phenyl-thiazole-4-carboxamide] |
| < 500 | < 500 | COc1cc2c(Oc3ccc(NC(=O)c4nn(-c5ccc(F)cc5)cc4OC)cc3F)ccnc2cc1OCC1CCNCC1 [Example 73, N-[3-fluoro-4-[[6-methoxy-7-(4-piperidylmethoxy)-4-quinolyl]oxy]phenyl]-1-(4-fluorophenyl)-4-methoxy-pyrazole-3-carboxamide] |
| < 500 | < 500 | CCOc1cn(-c2ccc(F)cc2C)nc1C(=O)Nc1ccc(Oc2ccnc3cc(OCC4CCNCC4)c(OC)cc23)c(F)c1 [Example 74, 4-ethoxy-N-[3-fluoro-4-[[6-methoxy-7-(4-piperidylmethoxy)-4-quinolyl]oxy]phenyl]-1-(4-fluoro-2-methyl-phenyl)pyrazole-3-carboxamide] |
| < 500 | < 500 | COc1cc2c(Oc3ccc(NC(=O)c4nn(-c5ccc(F)cc5)cc4OCC4CC4)cc3F)ccnc2cc1OCC1CCNCC1 [Example 75, 4-(cyclopropylmethoxy)-N-[3-fluoro-4-[[6-methoxy-7-(4-piperidylmethoxy)-4-quinolyl]oxy]phenyl]-1-(4-fluorophenyl)pyrazole-3-carboxamide] |
| < 500 | < 500 | COc1cc2c(Oc3ccc(NC(=O)c4nn(-c5ccc(F)cc5)cc4Br)cc3F)ccnc2cc1OCC1CCNCC1 [Example 76, 4-bromo-N-[3-fluoro-4-[[6-methoxy-7-(4-piperidylmethoxy)-4-quinolyl]oxy]phenyl]-1-(4-fluorophenyl)pyrazole-3-carboxamide] |
| < 500 | < 500 | COc1cc2c(Oc3ccc(NC(=O)c4nn(-c5ccc(F)cc5)cc4OCc4ccc(F)cc4)cc3F)ccnc2cc1OCC1CCNCC1 [Example 77, N-[3-fluoro-4-[[6-methoxy-7-(4-piperidylmethoxy)-4-quinolyl]oxy]phenyl]-1-(4-fluorophenyl)-4-[(4-fluorophenyl)methoxy]pyrazole-3-carboxamide] |
| < 500 | < 500 | COc1cc2c(Oc3ccc(NC(=O)c4cc(C)n(C(C)(C)C)n4)cc3F)ccnc2cc1OCC1CCNCC1 [Example 78, 1-tert-butyl-N-[3-fluoro-4-[[6-methoxy-7-(4-piperidylmethoxy)-4-quinolyl]oxy]phenyl]-5-methyl-pyrazole-3-carboxamide] |
